Earlier results as cited in patent US6514544B2, “Beverage for increasing the body's capacity to break down alcohol and method thereof” (JHS-Privatstiftung, priority 1998, dated 2003).

SMILES: CCO [alcohol, ethanol]
- share of the reabsorbed alcohol excreted via the kidneys (approximately): 1-2%
- share of the reabsorbed alcohol excreted via the lungs (approximately): 2-3%
- amount directly glucuronated (slight amounts): 0.5%
